We go through 21 molecules from patent US11648254B2 (Kumquat Biosciences Inc., priority 2021, dated 2023).

Structures are written as SMILES. pIC50: −log10 of the molar value. Read-outs that look alike come from different tables or passages of the source.

The target in the experiment is SOS1 (Homo sapiens (Human), UniProt Q07889). Nature of the experiment: Ras-SOS interaction assay (HTRF). It counts as biochemical. From the text:
The ability of any compound of the present disclosure to reduce a Ras protein signaling output by, e.g., interfering or disrupting interaction (or binding) between SOS1 and a Ras protein can be assessed in vitro. For example, the equilibrium interaction of human SOS1 (hSOS1) with human wildtype Kras or K-Ras mutant (e.g., hK-Ras G12C mutant, or hK-RasG12C) can be assessed as a proxy or an indication for a subject compound's ability to inhibit SOS. Detection of such interaction is achieved by measuring homogenous time-resolved fluorescence resonance energy transfer (HTRF) from (i) a fluorescence resonance energy transfer (FRET) donor (e.g., antiGST-Europium) that is bound to GST-tagged K-RasG12C to (ii) a FRET acceptor (e.g., anti-6His-XL665) bound to a His-tagged hSOS1.
The assay buffer can contain 5 mM HEPES pH 7.4, 150 mM NaCl, 10 mM EDTA, 1 mM DTT, 0.05% BSA, 0.0025% (v/v) Igepal and 100 mM KF. A Ras working solution is prepared in assay buffer containing typically 10 nM of the protein construct (e.g., GST-tagged hK-RasG12C) and 2 nM of the FRET donor (e.g., antiGST-Eu(K) from Cisbio, France). A SOS1 working solution is prepared in assay buffer containing typically 10 nM of the protein construct (e.g., His-hSOS1) and 10 nM of the FRET acceptor (e.g., anti-6His-XL665 from Cisbio, France). An inhibitor control solution is prepared in assay buffer containing 10 nM of the FRET acceptor without the SOS1 protein.
A fixed reaction mixture with or without test compound is transferred into a 384-well plate. Ras working solution is added to all wells of the test plate. SOS1 working solution is added to all wells except for those that are subsequently filled the inhibitor control solution. After approximately 60 min incubation, the fluorescence is measured with a M1000Pro plate reader (Tecan) using HTRF detection (excitation 337 nm, emission 1: 620 nm, emission 2: 665 nm). Compounds are tested in duplicates at different concentrations (for example, 10 μM, 2.5 μM, 0.63 μM, 0.16 μM, 0.04 μM, 0.01 μM test compound). The ratiometric data (i.e., emission 2 divided by emission 1) is used to calculate IC50 values against SOS1 using GraphPad Prism (GraphPad software).

Setting [1] is: K-RasG13D utilized, read-out: IC50 inhibition of SOS.
Where [2] appears, read: K-RasG13D, read-out: IC50 value against SOS1.

Chain of SOS1 (Q07889 564-1049): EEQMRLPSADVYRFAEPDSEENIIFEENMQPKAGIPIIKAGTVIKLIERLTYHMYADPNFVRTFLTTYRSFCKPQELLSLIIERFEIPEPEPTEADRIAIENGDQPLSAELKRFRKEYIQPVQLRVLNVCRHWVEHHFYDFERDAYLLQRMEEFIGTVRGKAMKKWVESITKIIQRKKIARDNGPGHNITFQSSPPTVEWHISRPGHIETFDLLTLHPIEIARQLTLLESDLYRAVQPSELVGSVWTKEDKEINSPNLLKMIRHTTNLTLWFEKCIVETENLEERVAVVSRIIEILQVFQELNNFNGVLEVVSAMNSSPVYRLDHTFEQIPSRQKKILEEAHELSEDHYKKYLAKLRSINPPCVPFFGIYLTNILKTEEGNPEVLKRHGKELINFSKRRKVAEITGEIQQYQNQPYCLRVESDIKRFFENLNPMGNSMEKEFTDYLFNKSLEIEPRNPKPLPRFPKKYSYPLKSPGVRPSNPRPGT

Consider `COc1nc2nc(C)nc(N[C@H](C)c3cccc(C(F)(F)C(C)(C)OC4CN(C(=O)OC(C)(C)C)C4)c3F)c2cc1N1CCN(C(C)C)CC1` [Compound 241, tert-butyl (R)-3-((1,1-difluoro-1-(2-fluoro-3-(1-((6-(4-isopropylpiperazin-1-yl)-7-methoxy-2-methylpyrido[2,3-d]pyrimidin-4-yl)amino)ethyl)phenyl)-2-methylpropan-2-yl)oxy)azetidine-1-carboxylate], for which the negative logarithm of the IC50 (pIC50) under setting [1] is more than 7.00.
In the case of `COc1nc2nc(C)nc(N[C@H](C)c3cccc(C(F)(F)CCC4CN(C(=O)OC(C)(C)C)C4)c3F)c2cc1C1(C#N)CC1` [Compound 208, tert-butyl (R)-3-(3-(3-(1-((6-(1-cyanocyclopropyl)-7-methoxy-2-methylpyrido[2,3-d]pyrimidin-4-yl)amino)ethyl)-2-fluorophenyl)-3,3-difluoropropyl)azetidine-1-carboxylate], the pIC50 under setting [1] is 6.00 to 7.00.
`Cc1nc(N[C@H](C)c2cccc(C(F)F)c2F)c2cc(N3CCN(C(C)C)CC3)c(NC3CNC3)nc2n1` [Compound 357, (R)-N7-(azetidin-3-yl)-N4-(1-(3-(difluoromethyl)-2-fluorophenyl)ethyl)-6-(4-isopropylpiperazin-1-yl)-2-methylpyrido[2,3-d]pyrimidine-4,7-diamine]: the negative-log IC50 (pIC50) is more than 7.00 under setting [1] and more than 7.30 under setting [2].
For the molecule `COc1nc2nc(C)nc(N[C@H](C)c3cccc(C(F)(F)F)c3F)c2cc1N1CCN(C(=O)[C@@H]2COCCO2)CC1` [Compound 382, ((S)-1,4-dioxan-2-yl)(4-(4-(((R)-1-(2-fluoro-3-(trifluoromethyl)phenyl)ethyl)amino)-7-methoxy-2-methylpyrido[2,3-d]pyrimidin-6-yl)piperazin-1-yl)methanone], the negative logarithm of the IC50 (pIC50) runs as follows: under setting [1], more than 7.00; under setting [2], more than 7.30.
On to `Cc1nc(N[C@H](C)c2cccc(C(F)F)c2F)c2cc(C3(C#N)CC3)c(NC3COC3)nc2n1` [Compound 225, (R)-1-(4-((1-(3-(difluoromethyl)-2-fluorophenyl)ethyl)amino)-2-methyl-7-(oxetan-3-ylamino)pyrido[2,3-d]pyrimidin-6-yl)cyclopropane-1-carbonitrile], for which the pIC50 under setting [1] is 6.00 to 7.00.
For `Cc1nc(N[C@H](C)c2cccc(C(F)F)c2F)c2cc(C3CCN(C)CC3)c(OC3COC3)nc2n1` [Compound 246, (R)-N-(1-(3-(difluoromethyl)-2-fluorophenyl)ethyl)-2-methyl-6-(1-methylpiperidin-4-yl)-7-(oxetan-3-yloxy)pyrido[2,3-d]pyrimidin-4-amine], the pIC50 reads like this: under setting [1], more than 7.00; under setting [2], more than 7.30.
In the case of `Cc1nc(N[C@H](C)c2cccc(C(F)F)c2F)c2cc(S(=O)(=O)C3CCN(C)CC3)c(C)nc2n1` [Compound 141, (R)-N-(1-(3-(difluoromethyl)-2-fluorophenyl)ethyl)-2,7-dimethyl-6-((1-methylpiperidin-4-yl)sulfonyl)pyrido[2,3-d]pyrimidin-4-amine], the pIC50 under setting [1] was more than 7.00.
Still for that read-out and setting: in the case of `Cc1nc(N[C@H](C)c2cccc(C(F)F)c2F)c2cc(C3(C#N)CC3)c(NCC3COC3)nc2n1` [Compound 398, (R)-1-(4-((1-(3-(difluoromethyl)-2-fluorophenyl)ethyl)amino)-2-methyl-7-((oxetan-3-ylmethyl)amino)pyrido[2,3-d]pyrimidin-6-yl)cyclopropane-1-carbonitrile] it was 6.00 to 7.00.
Regarding `Cc1nc(N[C@H](C)c2cccc(C(F)F)c2F)c2cc(N3CCN(C)CC3)c(OCCN(C)C)nc2n1` [Compound 371, (R)-N-(1-(3-(difluoromethyl)-2-fluorophenyl)ethyl)-7-(2-(dimethylamino)ethoxy)-2-methyl-6-(4-methylpiperazin-1-yl)pyrido[2,3-d] pyrimidin-4-amine], the pIC50 was more than 7.00 under setting [1] and more than 7.30 under setting [2].
As for `Cc1nc(N[C@H](C)c2cccc(C(F)F)c2F)c2cc(N3CCN(C(C)C)CC3)nnc2n1` [Compound 108, (R)—N-(1-(3-(difluoromethyl)-2-fluorophenyl)ethyl)-3-(4-isopropylpiperazin-1-yl)-7-methylpyrimido[4,5-c]pyridazin-5-amine], the pIC50 under setting [1] was more than 7.00.
Still for that read-out and setting: under `Cc1nc(N[C@H](C)c2cccc(C(F)F)c2F)c2cc(C3(C#N)CC3)c(NC3CCOCC3)nc2n1` [Compound 228, (R)-1-(4-((1-(3-(difluoromethyl)-2-fluorophenyl)ethyl)amino)-2-methyl-7-((tetrahydro-2H-pyran-4-yl)amino)pyrido[2,3-d]pyrimidin-6-yl)cyclopropane-1-carbonitrile] stands 6.00 to 7.00; under `COc1nc2nc(C)nc(N[C@H](C)c3cccc(C(F)(F)F)c3F)c2cc1N1CCN(C(=O)C2CN(C)CCO2)CC1` (stereo partly drawn) [Compound 311, (4-(4-(((R)-1-(2-fluoro-3-(trifluoromethyl)phenyl)ethyl)amino)-7-methoxy-2-methylpyrido[2,3-d]pyrimidin-6-yl)piperazin-1-yl)(4-methylmorpholin-2-yl)methanone], 6.00 to 7.00.
For `COc1nc2nc(C)nc(N[C@H](C)c3cccc(C(F)(F)F)c3F)c2cc1N1CCN(C2CCOCC2)CC1` [Compound 290, (R)-N-(1-(2-fluoro-3-(trifluoromethyl)phenyl)ethyl)-7-methoxy-2-methyl-6-(4-(tetrahydro-2H-pyran-4-yl)piperazin-1-yl)pyrido[2,3-d]pyrimidin-4-amine], the negative-log IC50 (pIC50) is more than 7.00 under setting [1] and more than 7.30 under setting [2].
Take `COc1nc2ncnc(N[C@H](C)c3cccc(C(F)(F)F)c3F)c2cc1C1(C#N)CCN(C(C)C)CC1` [Compound 280, (R)-4-(4-((1-(2-fluoro-3-(trifluoromethyl)phenyl)ethyl)amino)-7-methoxypyrido[2,3-d]pyrimidin-6-yl)-1-isopropylpiperidine-4-carbonitrile]: the pIC50 under setting [1] is 6.00 to 7.00.
As for `COc1nc2nc(CCN3CCC3)nc(N[C@H](C)c3cccc(C(C)(F)F)c3F)c2cc1C1(C#N)CC1` [Compound 425, (R)-1-(2-(2-(azetidin-1-yl)ethyl)-4-((1-(3-(1,1-difluoroethyl)-2-fluorophenyl)ethyl)amino)-7-methoxypyrido[2,3-d]pyrimidin-6-yl)cyclopropane-1-carbonitrile], the negative logarithm of the IC50 (pIC50) is more than 7.00 under setting [1] and more than 7.30 under setting [2].
Regarding `COc1nc2ncnc(N[C@H](C)c3cccc(C(F)(F)F)c3C)c2cc1C1CCN(C)CC1` [Compound 282, (R)-7-methoxy-N-(1-(2-methyl-3-(trifluoromethyl)phenyl)ethyl)-6-(1-methylpiperidin-4-yl)pyrido[2,3-d] pyrimidin-4-amine], the pIC50 under setting [1] is 6.00 to 7.00.
In the case of `COc1nc2nc(CCN3CCC3)nc(N[C@H](C)c3cccc(C(F)(F)F)c3F)c2cc1C1(C#N)CC1` [Compound 426, (R)-1-(2-(2-(azetidin-1-yl)ethyl)-4-((1-(2-fluoro-3-(trifluoromethyl)phenyl)ethyl)amino)-7-methoxypyrido[2,3-d]pyrimidin-6-yl)cyclopropane-1-carbonitrile], the pIC50 under setting [1] was more than 7.00.
Turning to `Cc1nc(N[C@H](C)c2cccc(C(F)(F)F)c2F)c2cc(N3CCN(C(C)C)CC3)nnc2n1` [Compound 107, (R)—N-(1-(2-fluoro-3-(trifluoromethyl)phenyl)ethyl)-3-(4-isopropylpiperazin-1-yl)-7-methylpyrimido[4,5-c]pyridazin-5-amine], the pIC50 under setting [1] is more than 7.00.
With `COc1nc2nc(C)nc(N[C@H](C)c3cccc(C(F)(F)C4CCN(C(C)C)CC4)c3F)c2cc1C1CCN(C)CC1` [Compound 424, (R)-N-(1-(3-(difluoro(1-isopropylpiperidin-4-yl)methyl)-2-fluorophenyl)ethyl)-7-methoxy-2-methyl-6-(1-methylpiperidin-4-yl)pyrido[2,3-d]pyrimidin-4-amine], the pIC50 reads like this: under setting [1], more than 7.00; under setting [2], more than 7.30.
For the molecule `COc1nc2nc(OCC3CCOCC3)nc(N[C@H](C)c3cccc(C(F)F)c3F)c2cc1C1(C#N)CC1` [Compound 275, (R)-1-(4-((1-(3-(difluoromethyl)-2-fluorophenyl)ethyl)amino)-7-methoxy-2-((tetrahydro-2H-pyran-4-yl)methoxy)pyrido[2,3-d]pyrimidin-6-yl)cyclopropane-1-carbonitrile], under setting [1], the pIC50 was 6.00 to 7.00.
On to `Cc1nc(N[C@H](C)c2cccc(C(F)(F)F)c2C)c2cc(C3(C#N)CC3)c(Cl)nc2n1` [Compound 423, (R)-1-(7-chloro-2-methyl-4-((1-(2-methyl-3-(trifluoromethyl)phenyl)ethyl)amino)pyrido[2,3-d]pyrimidin-6-yl)cyclopropane-1-carbonitrile], for which the negative logarithm of the IC50 (pIC50) under setting [1] is 6.00 to 7.00.

In general, pIC50 refers to the negative decadic logarithm of the IC50, by convention in mol/L.
